From patent US10869465B2, “Transgenic mouse model of retinal vascular disease, method of making, and method of using” (OSAKA UNIVERSITY, priority 2017, dated 2020)

Legend:
Assay type in all cases: in vivo
[1] = test system: retina of the constitutively active Akt-Mer Tg mouse; test: Retina cup observation by optical microscope after persistent activation of Akt (Example 3); conditions: 4-OHT i.p. 100 μg/day×3 days, 4th to 6th day after birth; observed 7th day; vs mouse without 4-OHT
Description: In this example, an influence of the persistent activation of Akt on the retina in the constitutively active Akt-Mer Tg mouse produced in Example 1 was investigated. Here, the influence on the retina was confirmed by observing the retina of the constitutively active Akt-Mer Tg mouse in which Akt had been persistently activated using an optical microscope.
To the constitutively active Akt-Mer Tg mouse produced in Example 1, 10 μg/μl 4-OHT was intraperitoneally administered at a dose of 10 μl per day from the fourth day to the sixth day after birth (total dose was 100 μg/day×3 days). On the seventh day after birth, perfusion fixation from the heart was performed using 4% paraformaldehyde (abbreviated as “PFA” hereinafter). Then, a retinal cup was produced from the removed eyeball, and an optical micrograph showing the retina was obtained using MZ16F (Leica). A mouse to which 4-OHT was not administered was used as a control and subjected to the same treatment, and then an image was obtained.

[2] = test system: retina of the constitutively active Akt-Mer Tg mouse; test: Whole-mount immunostaining (anti PECAM-1) of the retina, retinal vascular morphology (Examples 4, 5)
Description: (§1) To the constitutively active Akt-Mer Tg mouse produced in Example 1, 10 μg/μl 4-OHT was intraperitoneally administered at a dose of 10 μl per day from the fourth day to the sixth day after birth (total dose was 100 μg/day×3 days). On the seventh day after birth, perfusion fixation from the heart was performed using 4% PFA, and then a retinal cup was produced from the removed eyeball. Fluorescent immunostaining using an anti PECAM-1 (platelet endothelial cell adhesion molecule-1: CD31) antibody was performed to stain vascular endothelial cells. Subsequently, a flat-mount image of the retina was obtained using AxioObserver (Zeiss). A mouse to which 4-OHT was not administered was used as a control and subjected to the same treatment, and then an image was obtained.
For the purpose of further investigating the retinal vascular morphology in detail, the vascular lengths and vascular diameters were measured. Specifically, regarding the vascular lengths, a distance from the peripheral edge of the optic papilla to the leading end of the extending blood vessel along a vein was measured using Photoshop CS5 software. The vascular lengths at four positions in one retina were measured and quantified. Regarding the arterial diameters and venous diameters, the thickness of arteries and veins located on the circumference of a circle with a radius of 1500 μm about the optical papilla was measured also using Photoshop CS5 software (**<0.01).
as §1, with “1, 1” for “1, 10”, “was 10” for “was 100”, “days). This dose was one tenth of the dose in the previous examples.” for “days).”, “was produced.” for “was produced from the removed eyeball.”, “PECAM-1 (CD31)” for “PECAM-1 (platelet endothelial cell adhesion molecule-1: CD31)”, “was performed, and” for “was performed to stain vascular endothelial cells. Subsequently,”
For the purpose of further investigating the retinal vascular morphology in detail, the number of microaneurysms was measured. Specifically, regarding the measurement of the number of microaneurysms, the number of microaneurysms in one retina was manually measured using the flat-mount image of the retina.

[3] = test system: retina of the constitutively active Akt-Mer Tg mouse; test: Retinal vascular permeability, Evans blue leakage (Example 6); conditions: 4-OHT i.p. 10 μg/μl, 10 μl per day, 4th to 6th day after birth
Description: To the constitutively active Akt-Mer Tg mouse produced in Example 1, 10 μg/μl 4-OHT was intraperitoneally administered at a dose of 10 μl per day from the fourth day to the sixth day after birth (total dose was […]). On the seventh day after birth, 20 μl of Evans blue was intraperitoneally administered, and 1 hour after this, perfusion fixation from the heart was performed using 4% PFA, and then, the eyeball was removed. An image of the removed eyeball was obtained using an MZ16F stereoscopic microscope (Leica). A mouse to which 4-OHT was not administered was used as a control and subjected to the same treatment, and then an image was obtained.
Furthermore, for the purpose of evaluating the vascular permeability in a quantitative manner, the fluorescence intensity of Evans blue leaking from the retinal blood vessels was measured using an LSM710 confocal microscope (Zeiss) (***<0.001).

[4] = test system: retina of the constitutively active Akt-Mer Tg mouse; test: Retinal cryosection with Hoechst staining, retinal surface layer (Example 7); conditions: 4-OHT i.p. 100 μg/day×3 days; 7th day after birth; vs control
Description: To the constitutively active Akt-Mer Tg mouse produced in Example 1, 10 μg/μl 4-OHT was intraperitoneally administered at a dose of 10 μl per day from the fourth day to the sixth day after birth (total dose was 100 μg/day×3 days). On the seventh day after birth, perfusion fixation from the heart was performed using 4% PFA. The eyeball was removed, and then a retinal cryosection was produced. The nuclei were visualized through Hoechst staining, and an image was obtained using a microscope (Zeiss). A mouse to which 4-OHT was not administered was used as a control and subjected to the same treatment, and then an image was obtained.

[5] = 4-OHT i.p. 100 μg/day×3 days, observed 7th day after birth, vs control

4-hydroxytamoxifen [4-OHT]
retinal hemorrhage [1]: punctuate retinal hemorrhage was observed
number of microaneurysms in one retina (average) ([2]; 4-OHT i.p. 10 μg/day×3 days, 7th day after birth, hardly observed in control): 90
vascular network formation ([2]; 4-OHT i.p. 100 μg/day×3 days, 4th to 6th day after birth, observed 7th day, vs control): the formation of a dense vascular network was observed
formation of microaneurysms ([2]; 4-OHT i.p. 100 μg/day×3 days, observed 7th day after birth): the formation of microaneurysms, which have a varicose structure, was induced
extension of blood vessels [2, 5]: the extension of blood vessels was delayed compared with the control
vascular diameters (arteries, veins, capillaries) [2, 5]: the overall retinal blood vessels significantly expanded
formation of microaneurysms ([2]; low-concentration 4-OHT i.p. 10 μg/day×3 days, observed 7th day after birth): the formation of microaneurysms was also induced
vascular permeability (leakage of Evans blue from blood vessels) ([3]; Evans blue i.p. on 7th day, 1 hour): the vascular permeability was increased
fluorescence intensity of Evans blue leaking from the retinal blood vessels ([3]; confocal microscope, ***<0.001 vs control): significantly larger than that in the control
swelling of overall retina, particularly the surface layer [4]: significantly swollen
